The text below walks through data of publication PMC12371494, “Discovery of YTHDF2 Ligands by Fragment-Based Design” (ACS Bio & Med Chem Au, 2025).

Each structure is given as a SMILES string. Several values for one entry are separate records, joined by “and”; a condition that tells them apart may be missing. Equal entries are not always repeated.

The first assay concerns the target T1, YTHDF2 (Homo sapiens, UniProt Q9Y5A9).
T1 sequence (Q9Y5A9 1-579): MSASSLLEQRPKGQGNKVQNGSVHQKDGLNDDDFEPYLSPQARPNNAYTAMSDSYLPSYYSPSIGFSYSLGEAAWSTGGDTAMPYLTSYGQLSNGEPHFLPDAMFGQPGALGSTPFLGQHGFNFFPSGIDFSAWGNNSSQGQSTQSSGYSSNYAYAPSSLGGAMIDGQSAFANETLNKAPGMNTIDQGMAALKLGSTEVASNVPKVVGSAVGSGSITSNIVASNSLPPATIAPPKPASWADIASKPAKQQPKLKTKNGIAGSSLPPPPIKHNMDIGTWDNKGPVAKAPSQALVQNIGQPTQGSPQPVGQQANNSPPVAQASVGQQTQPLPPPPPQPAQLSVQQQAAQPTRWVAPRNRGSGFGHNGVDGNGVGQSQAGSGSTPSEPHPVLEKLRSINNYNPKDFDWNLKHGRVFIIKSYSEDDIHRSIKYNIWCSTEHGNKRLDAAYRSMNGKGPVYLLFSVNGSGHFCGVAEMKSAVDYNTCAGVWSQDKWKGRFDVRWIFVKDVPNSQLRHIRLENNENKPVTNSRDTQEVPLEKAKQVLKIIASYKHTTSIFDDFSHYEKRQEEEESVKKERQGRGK
The assay can be described thus: DNA-fluorescence polarization (FP) competition assay, DF2.
Details: not given
Type of assay: binding. On the procedure: An FP competition assay was used to further validate the binding of the compounds to DF2. The main difference with respect to a previously published FP assay is the use of an oligo-DNA as competitor ligand (see Materials and Methods section). […] These differences might originate from the varying conditions in the two assays, such as the competitor mRNA (5′-biotin-[…](m6A)-CUAAGCU-3′) in HTRF and DNA (5′-FAM-[…](m6A)-CTAAGCT-3′) in FP, the salt concentration (150 mM NaCl and 100 mM KF in HTRF, and 150 mM NaCl in FP), and the pH (7.5 in HTRF and 7.4 in FP). The FP-based assay was also employed to assess the selectivity against DC1 and DC2 (see Selectivity section).
(§1) For fluorescence polarization (FP) experiments, a 5′-fluorescein-labeled m^6A-DNA probe (5′-FAM-[…](m6A)-CTAAGCT-3′) was synthesized by Microsynth AG.
(§2) The final concentration of the fluorescein-labeled DNA was kept constant at 3 nM. For YTHDC2 measurements, the protein concentration was set to 25 nM, while for YTHDF2 measurements, it was set to 10 nM, and for YTHDC1, it was set at 15 nM. The compound concentration was serially diluted to obtain the dose–response curve. The competition experiments were conducted in a final volume of 20 μL in a buffer containing 20 mM Tris–HCl (pH 7.4), 150 mM NaCl, and 0.01% bovine serum albumin (BSA), using a 384-well black flat-bottomed microplate (Corning 3575).
(§3) After incubating the mixture for 1 h, the anisotropy values were measured using a Tecan SPARK plate reader with 485/20 nm excitation and 535/25 nm emission polarization filters, suitable for fluorescein, at 25 °C. To obtain the equilibrium dissociation constant (K d), the IC50 values were first derived by fitting a dose–response curve to the data using nonlinear regression analysis in GraphPad Prism. These IC50 values were then converted to K d by using the Cheng–Prusoff equation: Kd=IC50/1+[L]/Kdprobe
(§4) IC50 is the observed value from FP assay, [L] is the probe concentration used, and K d ^probe is the binding affinity of probe for the target.
(Polarisation of emitted light reports the rotation of a fluorescent probe.)
Consider `O=c1[nH]c(=S)[nH]c2sccc12` [Compound 14], for which binding was put at a Kd of 3.8 µM.
Molecule `COC(=O)c1ccc(-c2csc3[nH]c(=S)[nH]c(=O)c23)cc1` [Compound 17] displayed a Kd of 1.2 µM.
`O=C(O)c1ccc(-c2csc3[nH]c(=S)[nH]c(=O)c23)cc1` [Compound 18]: the Kd was found to be 0.61 µM.
For `O=c1[nH]c(=S)[nH]c2scc(-c3ccc(O)cc3)c12` [Compound 19], the affinity, expressed as Kd, was 1.3 µM.
`CC(=O)c1sc2[nH]c(=S)[nH]c(=O)c2c1C` [Compound 20] came in with a Kd of 3.1 µM.
On the same count and under the same terms, to `CCOC(=O)c1sc2[nH]c(=S)[nH]c(=O)c2c1C` [Compound 21] belongs 4.4 µM.
Still for that read-out and setting: the value for `Cc1c(C(=O)NCc2ccccc2)sc2[nH]c(=S)[nH]c(=O)c12` [Compound 22] was 10 µM; that for `Cc1c(C(=O)NCc2cccnc2)sc2[nH]c(=S)[nH]c(=O)c12` [Compound 23] was 1.3 µM; that for `Cc1c(C(=O)NCc2cccc(C(=O)O)c2)sc2[nH]c(=S)[nH]c(=O)c12` [Compound 24] was 2.5 µM.
As to `Cc1c(C(=O)NCCCC(=O)O)sc2[nH]c(=S)[nH]c(=O)c12` [Compound 25], binding was put at a Kd of 1.3 µM.
The molecule `Cc1c(-c2ccc([N+](=O)[O-])cc2)sc2[nH]c(=S)[nH]c(=O)c12` [Compound 26] came in with a Kd of 17 µM.
Still for that read-out and setting: to `Cc1c(-c2ccc(N)cc2)sc2[nH]c(=S)[nH]c(=O)c12` [Compound 27] belongs 1.9 µM; to `NC(=O)c1csc2[nH]c(=S)[nH]c(=O)c12` [Compound 31], 1.9 µM.

Still in this assay, the particulars now being: Cheng-Prusoff from FP IC50, probe Kd 5 nM; two biological replicates.
`O=c1[nH]c(=S)[nH]c2scc(-c3ccc(Br)cc3)c12` [Compound S75]: the Kd turned out to be 8.8 µM. This counts as single-digit micromolar.
Take `COc1ccc(-c2csc3[nH]c(=S)[nH]c(=O)c23)cc1` [Compound S76]: binding was put at a Kd of 11 µM.
Same read-out and setting: the value for `O=c1[nH]c(=S)[nH]c2scc(C3CCCCC3)c12` [Compound S77] was 5.6 µM.
Take `O=c1[nH]c(=S)[nH]c2sc(Cc3ccccc3)cc12` [Compound S85]: the dissociation constant Kd was 6.2 µM.
Consider `CCOC(=O)c1csc2[nH]c(=S)[nH]c(=O)c12` [Compound S89], for which the Kd stood at 7.5 µM.
The same measure, in the same setting: the value for `O=C(O)c1csc2[nH]c(=S)[nH]c(=O)c12` [Compound S90] was 10 µM.

Still in this assay, the particulars now being: FP IC50 before conversion (Kd = IC50/1.6).
On to `O=c1[nH]c(=S)[nH]c2scc(-c3ccc(O)cc3)c12` [Compound 19], for which the IC50 was determined as 2 µM.

Another assay deals with T2, YTHDC2 (Homo sapiens, UniProt Q9H6S0).
T2 construct: YTH domain of YTHDC2 (residues 1285–1424, cloned into the pGEX-6P-1 vector); made in house; host or cells: Rosetta (DE3) cells (E. coli)
T2 sequence (Q9H6S0 1285-1424): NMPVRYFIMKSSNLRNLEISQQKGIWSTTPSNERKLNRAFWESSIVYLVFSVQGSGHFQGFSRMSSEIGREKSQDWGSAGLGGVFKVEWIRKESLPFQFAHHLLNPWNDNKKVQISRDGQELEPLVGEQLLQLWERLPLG
As to the kind of experiment: DNA-fluorescence polarization (FP) competition assay, DC2. Format: binding. The conditions noted are these: Cheng-Prusoff from FP IC50, probe Kd 7 nM; two biological replicates. On the procedure:
The binding affinity for DC1 could not be evaluated by HTRF because of interference of the compounds with the assay, which has a smaller assay window when performed with DC1 compared to the DF proteins. Thus, the FP assay was used to evaluate binding to DC1 and DC2.
The N-terminally GST-tagged YTH domain of YTHDC2 (residues 1285–1424, cloned into the pGEX-6P-1 vector) was overexpressed in Rosetta (DE3) cells grown overnight at 20 °C following induction with 0.4 mM isopropyl-β-D-thiogalactopyranoside (IPTG) at an OD600 of 0.8. The cells were harvested and resuspended in a lysis buffer containing 100 mM Tris–HCl (pH 8.0) and 500 mM NaCl. After cell lysis, the lysate was clarified by centrifugation at 48,000g for 1 h, and the soluble proteins were loaded onto a column packed with Glutathione Sepharose 4B (GE Healthcare), then eluted with 20 mM reduced glutathione in lysis buffer. Finally, a size-exclusion chromatography step (HiLoad 16/600 Superdex 200 pg column, GE Healthcare) was performed to further purify the protein in 20 mM Tris–HCl (pH 7.4) and 150 mM NaCl.
as §1, §2, §3, §4
On to `O=c1[nH]c(=S)[nH]c2sccc12` [Compound 14], for which the dissociation constant Kd turned out to be 88 µM.
Same read-out and setting: the value for `COC(=O)c1ccc(-c2csc3[nH]c(=S)[nH]c(=O)c23)cc1` [Compound 17] was 6.3 µM; that for `O=C(O)c1ccc(-c2csc3[nH]c(=S)[nH]c(=O)c23)cc1` [Compound 18] was 7.7 µM; that for `O=c1[nH]c(=S)[nH]c2scc(-c3ccc(O)cc3)c12` [Compound 19] was 40 µM.
The molecule `CC(=O)c1sc2[nH]c(=S)[nH]c(=O)c2c1C` [Compound 20] had a Kd of 46 µM.
Still for that read-out and setting: the value for `CCOC(=O)c1sc2[nH]c(=S)[nH]c(=O)c2c1C` [Compound 21] was 230 µM; that for `Cc1c(C(=O)NCc2ccccc2)sc2[nH]c(=S)[nH]c(=O)c12` [Compound 22] was 270 µM.
`Cc1c(C(=O)NCc2cccnc2)sc2[nH]c(=S)[nH]c(=O)c12` [Compound 23]: the Kd is > 400 µM and 450 µM.
In the case of `Cc1c(C(=O)NCc2cccc(C(=O)O)c2)sc2[nH]c(=S)[nH]c(=O)c12` [Compound 24], the affinity, expressed as Kd, was 41 µM. That is a double-digit micromolar value.
`Cc1c(C(=O)NCCCC(=O)O)sc2[nH]c(=S)[nH]c(=O)c12` [Compound 25] came in with a Kd of 130 µM.
Still for that read-out and setting: the value for `Cc1c(-c2ccc([N+](=O)[O-])cc2)sc2[nH]c(=S)[nH]c(=O)c12` [Compound 26] was 35 µM; that for `Cc1c(-c2ccc(N)cc2)sc2[nH]c(=S)[nH]c(=O)c12` [Compound 27] was 30 µM; that for `NC(=O)c1csc2[nH]c(=S)[nH]c(=O)c12` [Compound 31] was 18 µM.
In turn, `O=c1[nH]c(=S)[nH]c2scc(-c3ccc(Br)cc3)c12` [Compound S75] came in with a Kd of 37 µM. This Kd lies about 2.1-fold higher than the previous one.
`COc1ccc(-c2csc3[nH]c(=S)[nH]c(=O)c23)cc1` [Compound S76] gave a Kd of 54 µM.
Regarding `O=c1[nH]c(=S)[nH]c2scc(C3CCCCC3)c12` [Compound S77], the Kd worked out at 240 µM.
Same read-out and setting: the value for `O=c1[nH]c(=S)[nH]c2sc(Cc3ccccc3)cc12` [Compound S85] was 160 µM; that for `CCOC(=O)c1csc2[nH]c(=S)[nH]c(=O)c12` [Compound S89] was 450 µM and > 400 µM; that for `O=C(O)c1csc2[nH]c(=S)[nH]c(=O)c12` [Compound S90] was 240 µM.

The same assay, now with this note: FP Kd values.
On to `O=c1[nH]c(=S)[nH]c2sccc12` [Compound 14], for which the “Selectivity DF2 over DC2 (Kd ratio DC2/DF2)” value is ~20 fold.
Take `Cc1c(C(=O)NCc2cccnc2)sc2[nH]c(=S)[nH]c(=O)c12` [Compound 23]: the “Selectivity DF2 over DC2 (Kd ratio DC2/DF2)” value is reported as “about 350 fold”.

What is called Kd is the concentration at which binding is half-saturated. The IC50 is the midpoint of a concentration-inhibition curve. A low value points to higher potency.
